Test results from ChEMBL document CHEMBL3045488, “3D-QSAR STUDIES ON SUBSTITUTED DIHYDROPYRIDINES FOR THEIR 1A-ADRENERGIC RECEPTOR BINDING AFFINITY” (Med Chem Res, 2004).

Biological target: T1, Alpha-1A adrenergic receptor (Homo sapiens, UniProt P35348)
T1 sequence (P35348 whole entry): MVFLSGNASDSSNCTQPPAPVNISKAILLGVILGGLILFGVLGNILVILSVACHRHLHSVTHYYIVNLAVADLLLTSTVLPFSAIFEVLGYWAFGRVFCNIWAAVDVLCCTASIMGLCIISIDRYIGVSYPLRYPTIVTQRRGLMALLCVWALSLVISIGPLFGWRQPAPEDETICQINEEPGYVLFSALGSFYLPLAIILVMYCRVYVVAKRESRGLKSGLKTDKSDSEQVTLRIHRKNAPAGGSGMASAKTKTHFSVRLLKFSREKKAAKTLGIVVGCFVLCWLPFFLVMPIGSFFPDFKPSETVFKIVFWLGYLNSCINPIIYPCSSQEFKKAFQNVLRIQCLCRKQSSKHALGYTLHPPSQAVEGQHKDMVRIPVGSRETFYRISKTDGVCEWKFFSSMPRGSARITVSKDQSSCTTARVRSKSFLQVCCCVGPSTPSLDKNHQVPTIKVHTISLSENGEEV
Experiment: Binding affinity to Homo sapiens (human) alpha1A adrenergic receptor

Structure (SMILES)	Ki [nM]
COC(=O)C1=C(C)NC(C)=C(C(=O)NCCCN2CCC(c3ccccc3)CC2)C1c1ccc([N+](=O)[O-])cc1 (racemic)	0.229
COC(=O)C1=C(C)NC(C)=C(C(=O)NCCCN2CCC(c3ccccc3)(c3ccccc3)CC2)C1c1ccc(C)cc1 (racemic)	1.38
COC(=O)C1=C(C)NC(C)=C(C(=O)NCCCN2CCC(C(=O)OC)(c3ccccc3)CC2)C1c1ccc([N+](=O)[O-])cc1 (stereo unspecified)	3.55
COC(=O)C1=C(C)NC(C)=C(C(=O)NCCCCN2CCC(c3ccccc3)(c3ccccc3)CC2)C1c1ccc([N+](=O)[O-])cc1 (racemic)	14.8
COC(=O)C1(c2ccccc2)CCN(CCCNC(=O)C2=C(C)NC(C)=C(C(=O)OCCO)C2c2ccc([N+](=O)[O-])cc2)CC1 (stereo unspecified)	3.63
COC(=O)C1=C(C)NC(C)=C(C(=O)NCCCN2CCC(c3ccccc3)CC2)C1c1ccc(Cl)c([N+](=O)[O-])c1 (racemic)	0.525
